Experimental data from publication PMC2806825, “The Expression Level of CB1 and CB2 Receptors Determines Their Efficacy at Inducing Apoptosis in Astrocytomas” (PLoS ONE, 2010).

Experiments:
CB2 receptors [1] = target: T1, CB2 receptors (Mus musculus, UniProt P47936); assay: ERK1/2 phosphorylation by Western blot in CB2-expressing DBT subclones; format: cell-based
T1 construct: expressed in transfected cells
Description: (§1) Cells were expanded in Costar 24-well plates (10^5 cells per well) in culture media (0.5 ml per well). Once they reached ∼70% confluence, they were rinsed with PBS and kept for an additional 24 hrs in serum-deprived media, at which time point drugs or vehicle (DMSO, 0.1%) prepared in 50 µl serum-deprived media were directly added to each well for the corresponding number of minutes. We chose to directly administer the drugs to cell culture media instead of replacing the media to avoid stress-induced increases in basal kinase phosphorylation (Figure S1). To quantify Erk phosphorylation, reactions were stopped by removing the media and adding NuPAGE® LDS sample buffer (300 µl, Invitrogen, Carlsbad, CA) supplemented with 2-mercaptoethanol (1%). An aliquot of each sample (20 µl) was loaded onto NuPAGE® 4–12% Bis-Tris pre-cast gels (Inivtrogen) and electrophoresed according to the manufacturer's instructions. Gels were electrophoretically transferred to P-nitrocellulose membrane (Millipore, Billerica, MA) and blocked in LiCOR blocking buffer (LiCOR, Lincoln, NE) for 1 hr at 25°C. Membranes were then incubated in blocking buffer containing rabbit anti-phospho-p44/42 antibody (1∶1000, Cell Signaling Technology, Inc., Danvers, MA) for 1 hr at 25°C. Membranes were washed 3 times with Tris (50 mM) buffered saline containing 0.1% Tween-20 (TBS-T). Membranes were then incubated in blocking buffer containing donkey anti-rabbit antibody conjugated to IRDye 800 (1∶7500, Rockland Immunochemicals, Inc., Gilbertsville, PA) for 1 hr at 25°C. Membranes were washed 3 times with TBS-T. The fluorescence intensity of each band was quantified using the LiCOR Odyssey. To quantify AKT, JNK, p38 and GSKβ phosphorylation, reactions were stopped by addition of NP40 cell lysis buffer (100 µl, Invitrogen). Substrate phosphorylation was quantified using a Biosource Multiplex Bead Immunoassay kit (Invitrogen) according to the manufacturer's instructions and using a Luminex 100™ instrument (Luminex, Austin, TX).

CB2 receptors [2] = target: T1, CB2 receptors; assay: AKT phosphorylation by Luminex multiplex immunoassay in CB2-expressing DBT subclones; format: cell-based; details: for AKT phosphorylation: 1 µM
Description: as §1

wild type DBT cells = assay: Cell viability by WST-1 conversion, wild type DBT cells; format: cell-based, mouse
Description: (§2) Cells were expanded in 24-well plates (10^5 cells per well) in culture media (0.5 ml per well). Once they reached ∼70% confluence, they were rinsed with PBS and kept for an additional 24 hrs in serum-deprived media, at which time drugs or vehicle (DMSO, 0.1%) prepared in 50 µl serum-deprived media were directly added to each well. After 1, 3, or 5 days, cell viability was assessed using the Cell Proliferation Reagent WST-1 (Roche, Indianapolis, IN). Briefly, WST-1 reagent (50 µl) was added to each well for 4 hrs at 37°C with 5% CO2, and then WST-1 products were read at 450 nm using Packard SpectraCount™. Apoptosis was assessed using PI and annexin V (Pacific Blue™, Invitrogen). Briefly, cells were detached using trypsin, rinsed with 25°C PBS and resuspended to a density of 10^6 cells per ml of annexin-binding buffer (10 mM HEPES, 140 mM NaCl, 2.5 mM CaCl2, pH 7.4). PI (100 ng) and annexin V were added to 100 µl of cell suspension and incubated at 25°C for 30 min. Additional annexin-binding buffer was added (400 µl) and samples were sorted (10,000 events) on a LSR II flow cytometer (BD Biosciences, San Jose, CA) and the data analyzed using FlowJo (Tree Star, Inc., Ashland, OR).

GSK-3β phosphorylation = GSK-3β phosphorylation by Luminex multiplex immunoassay in DBT subclones; format: cell-based, mouse; details: any of the subclones, throughout 30 min incubation; data not shown
Description: as §1, with “Gels were electrophoretically transferred to P-nitrocellulose membrane (Millipore, Billerica, MA) and blocked in LiCOR blocking buffer (LiCOR, Lincoln, NE) for 1 hr at 25°C. Membranes were then incubated in blocking buffer containing rabbit anti-phospho-p44/42 antibody (1∶1000, Cell Signaling Technology, Inc., Danvers, MA) for 1 hr at 25°C. Membranes were washed 3 times with Tris (50 mM) buffered saline containing 0.1% Tween-20 (TBS-T). Membranes were then incubated in blocking buffer containing donkey anti-rabbit antibody conjugated to IRDye 800 (1∶7500, Rockland Immunochemicals, Inc., Gilbertsville, PA) for 1 hr at 25°C.” left out

DBT cells = assay: Cell viability by WST-1 conversion, wild type DBT cells and DBT subclones; format: cell-based, mouse
Description: as §2

CB2 receptors [3] = target: T1, CB2 receptors; assay: JNK and p38 phosphorylation by Luminex multiplex immunoassay in CB2-high DBT clone; format: cell-based; details: 1 µM, lasted throughout 30 min incubation
Description: as §1, with “Gels were electrophoretically transferred to P-nitrocellulose membrane (Millipore, Billerica, MA) and blocked in LiCOR blocking buffer (LiCOR, Lincoln, NE) for 1 hr at 25°C. Membranes were then incubated in blocking buffer containing rabbit anti-phospho-p44/42 antibody (1∶1000, Cell Signaling Technology, Inc., Danvers, MA) for 1 hr at 25°C. Membranes were washed 3 times with Tris (50 mM) buffered saline containing 0.1% Tween-20 (TBS-T). Membranes were then incubated in blocking buffer containing donkey anti-rabbit antibody conjugated to IRDye 800 (1∶7500, Rockland Immunochemicals, Inc., Gilbertsville, PA) for 1 hr at 25°C.” left out

CB1-low DBT cells [4] = assay: Apoptosis by propidium iodide and annexin V FACS, CB1-low DBT cells; format: cell-based, mouse; details: 1 µM
Description: as §2

[5] = tested on: AKT phosphorylation in wild type DBT cells; assay: AKT phosphorylation in wild type DBT cells; format: cell-based, mouse; details: 1 µM
Description: as §1, with “Gels were electrophoretically transferred to P-nitrocellulose membrane (Millipore, Billerica, MA) and blocked in LiCOR blocking buffer (LiCOR, Lincoln, NE) for 1 hr at 25°C. Membranes were then incubated in blocking buffer containing rabbit anti-phospho-p44/42 antibody (1∶1000, Cell Signaling Technology, Inc., Danvers, MA) for 1 hr at 25°C. Membranes were washed 3 times with Tris (50 mM) buffered saline containing 0.1% Tween-20 (TBS-T). Membranes were then incubated in blocking buffer containing donkey anti-rabbit antibody conjugated to IRDye 800 (1∶7500, Rockland Immunochemicals, Inc., Gilbertsville, PA) for 1 hr at 25°C.” left out

CB1-low DBT cells [6] = assay: Cell viability by WST-1 conversion, CB1-low DBT cells; format: cell-based, mouse
Description: as §2

wild-type DBT cells [7] = assay: Apoptosis by propidium iodide and annexin V FACS, wild-type DBT cells; format: cell-based, mouse; details: 10 µM
Description: as §2

[8] = tested on: ERK1/2 phosphorylation in wild-type DBT cells; assay: ERK1/2 phosphorylation in wild-type DBT cells; format: cell-based, mouse; details: 1 µM
Description: as §1, with “Gels were electrophoretically transferred to P-nitrocellulose membrane (Millipore, Billerica, MA) and blocked in LiCOR blocking buffer (LiCOR, Lincoln, NE) for 1 hr at 25°C. Membranes were then incubated in blocking buffer containing rabbit anti-phospho-p44/42 antibody (1∶1000, Cell Signaling Technology, Inc., Danvers, MA) for 1 hr at 25°C. Membranes were washed 3 times with Tris (50 mM) buffered saline containing 0.1% Tween-20 (TBS-T). Membranes were then incubated in blocking buffer containing donkey anti-rabbit antibody conjugated to IRDye 800 (1∶7500, Rockland Immunochemicals, Inc., Gilbertsville, PA) for 1 hr at 25°C.” left out

CB2 receptors [9] = target: T1, CB2 receptors; assay: Radioligand saturation binding with [3H]CP-55,940 on membranes of CB2-expressing DBT subclones; details: mean of 3–5 determinations
Description: (§3) Cells (10^6) were expanded in 10 cm dishes using 10 ml culture media. Once they reached ∼70% confluence, they were rinsed with PBS and kept for an additional 24 hrs in serum-deprived media, which is composed of DMEM+GlutaMAX™-I supplemented with fatty acid free bovine serum albumin (0.1%, BSA, Sigma-Aldrich, St. Louis, MO) and insulin-transferin-sodium selenite liquid media (1×, ITS, Sigma-Aldrich). For qPCR, media was removed and cells washed once with 10 ml PBS, then cells were scraped and total RNA isolated using RNeasy extraction kit (QIAGEN) according to the manufacturer's instructions. The following primer and TaqMan probe sequences were generated using Primer Express (Perkin-Elmer Applied Biosystems, Foster City, CA): mCB1 forward, 5′-[…]-3′, reverse, 5′-[…]-3′, probe, 5′-([…])-3′; mCB2 forward, 5′-[…]-3′, reverse, 5′-[…]-3′, probe, 5′-([…])-3′. Total RNA from each sample (2.5 ng) was reverse transcribed in the same 10 µl quantitative PCR reaction mix using the Brilliant Single-Step Quantitative RT-PCR Core Reagent Kit (Stratagene, La Jolla, CA). Combined reactions were carried out on a Stratagene Mx3000P Real-Time Detection System using the following protocol: 30 min single-strand synthesis reaction at 45°C; 40-cycle, two-step PCR amplification (15 sec at 95°C followed by 1 min at 56°C). Duplicate reactions with and without reverse transcriptase were run for each sample. For radioligand binding, media was removed and cells washed once with 10 ml PBS. Cells were scraped in 1 ml buffer (50 mM Tris-HCl, 3 mM MgCl2, 1 mM EDTA, pH 7.4) and pulse homogenized 10 sec using PRO200 tissue homogenizer (PRO Scientific, Oxford, CT). Crude membrane preparations were generated by centrifugation of cell homogenates for 20 min at >10,000×g. Cell pellets were resuspended in buffer containing BSA (0.1%, fatty acid free) and 50 µg protein added to siliconized glass tubes for assay. […] Radioactivity on filters was measured using scintillation counter.

CB1 receptors = target: T2, CB1 receptors (Mus musculus, UniProt P47746); assay: Radioligand saturation binding with [3H]CP-55,940 on membranes of CB1-expressing DBT subclones; details: mean of 3–5 determinations
T2 construct: expressed in transfected cells
T2 sequence (P47746 whole entry): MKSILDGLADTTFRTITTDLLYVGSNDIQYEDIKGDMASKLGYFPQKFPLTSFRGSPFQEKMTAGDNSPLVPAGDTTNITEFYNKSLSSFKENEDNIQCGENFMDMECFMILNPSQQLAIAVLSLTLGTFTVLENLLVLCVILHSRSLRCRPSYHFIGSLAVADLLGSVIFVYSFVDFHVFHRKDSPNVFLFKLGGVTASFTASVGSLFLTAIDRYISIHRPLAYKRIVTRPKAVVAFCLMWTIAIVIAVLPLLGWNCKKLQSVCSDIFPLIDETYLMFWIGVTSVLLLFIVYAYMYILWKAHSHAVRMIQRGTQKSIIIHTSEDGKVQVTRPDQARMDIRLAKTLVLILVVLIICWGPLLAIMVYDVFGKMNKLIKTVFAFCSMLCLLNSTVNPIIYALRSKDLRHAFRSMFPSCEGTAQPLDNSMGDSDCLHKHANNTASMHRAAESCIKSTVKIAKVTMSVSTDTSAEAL
Description: as §3

wild-type DBT cells [10] = assay: Radioligand binding with [3H]CP-55,940 on wild-type DBT cells; parameters: species or system mouse
Description: as §3, with “56°C).” for “56°C). Duplicate reactions with and without reverse transcriptase were run for each sample. For radioligand binding, media was removed and cells washed once with 10 ml PBS. Cells were scraped in 1 ml buffer (50 mM Tris-HCl, 3 mM MgCl2, 1 mM EDTA, pH 7.4) and pulse homogenized 10 sec using PRO200 tissue homogenizer (PRO Scientific, Oxford, CT). Crude membrane preparations were generated by centrifugation of cell homogenates for 20 min at >10,000×g. Cell pellets were resuspended in buffer containing BSA (0.1%, fatty acid free) and 50 µg protein added to siliconized glass tubes for assay.”

[11] = antagonist 3 µM added 10 min before CP, CB2 subclones

T1 sequence (P47936 whole entry): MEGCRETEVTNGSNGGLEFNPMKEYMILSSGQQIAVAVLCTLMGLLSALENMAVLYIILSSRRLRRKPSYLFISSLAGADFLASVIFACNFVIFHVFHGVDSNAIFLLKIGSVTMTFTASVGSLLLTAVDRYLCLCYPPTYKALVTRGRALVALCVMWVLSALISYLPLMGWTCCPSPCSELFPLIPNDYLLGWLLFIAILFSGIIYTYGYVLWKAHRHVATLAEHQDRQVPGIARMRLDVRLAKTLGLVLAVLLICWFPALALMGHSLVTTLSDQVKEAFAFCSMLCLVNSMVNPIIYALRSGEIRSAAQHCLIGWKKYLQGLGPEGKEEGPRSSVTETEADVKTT

## 5- (4-chloro-3- methyl- phenyl)-1- [(4- methylphenyl)methyl]- N-(1,3,3- trimethylnorbornan- 2- yl)- pyrazole- 3- carboxamide [SR144528]
CB2 receptors [1]; [11]
  Effect on CP-55,940 (1 µM)-induced ERK1/2 phosphorylation: significantly attenuated
CB2 receptors [2]; [11]
  Effect on CP-55,940 (1 µM)-induced AKT phosphorylation: antagonized

## (−)-cis-3-[2-hydroxy-4-(1,1-dimethylheptyl)phenyl]-trans-4-(3-hydroxypropyl) cyclohexanol [CP-55,940]
Wild type DBT cells; wild type DBT cells, Figure 3c, read-out: EC50 of cell death (WST-1)
  EC50: 5000 nM
GSK-3β phosphorylation
  Phosphorylation state of GSK-3β: did not significantly affect
DBT cells; 10 µM, wild type DBT cells and all six subclones, five days after treatment
  Cell death (WST-1): 35–90%
CB2 receptors [3]
  Phosphorylation state of JNK and p38: 150–170 % of basal
CB1-low DBT cells [4]; 3 days after treatment
  Cell death by apoptosis: 15%
CB1-low DBT cells [4]; after five days
  Cell death by apoptosis: 48%
CB2 receptors [1]; 1 µM, 3 min, CB2-low, CB2-mid, CB2-high subclones
  ERK1/2 phosphorylation above vehicle-treated controls: significant increase
CB2 receptors [1]; 1 µM, CB2-expressing subclones
  Time of peak of ERK1/2 phosphorylation: 3 min
  Time of return of ERK1/2 phosphorylation to basal: 10 to 20 min
CB2 receptors [2]; CB2-high clone, during the entire 30 min incubation
  AKT phosphorylation: above 250 % of basal
CB2 receptors [2]; CB2-high subclone
  AKT phosphorylation: most pronounced increase
CB2 receptors [2]; CB2-low and CB2-mid subclones
  AKT phosphorylation: small, but significant increase
[5]
  AKT phosphorylation: did not increase
CB1-low DBT cells [6]; 1 µM, CB1-low DBT subclone, five days after treatment
  Cell death (WST-1): ~50%
CB1-low DBT cells [6]; CB1-low DBT cells, Figure 3c, read-out: EC50 of cell killing (WST-1)
  EC50: 560 nM
wild-type DBT cells [7]; 3 days after treatment
  Cell death by apoptosis: 27%
wild-type DBT cells [7]; after five days
  Cell death by apoptosis: 78%
[8]
  ERK1/2 phosphorylation: did not affect

## CCN(CC)CCCCN1c2ccccc2Oc2ccc(Cl)cc21.Cl [Inhibitor X]
DBT cells; 5 µM added 10 min before CP, DBT subclones normally resistant, 5 days
  Effect on killing by 1 µM CP-55,940 (WST-1): uncovered the ability of 1 µM CP-55,940 to kill
DBT cells; 5 µM, DBT subclones, 5 days
  Effect by itself on cell viability (WST-1): no effect

## CCCCCCC(C)(C)c1ccc([C@@H]2C[C@H](O)CC[C@H]2CCCO)c(O)c1 [[^3H]CP-55,940]
CB2 receptors [9]; CB2-high subclone 1D6
  Kd: 0.6 nM
CB2 receptors [9]; CB2-low subclone 2G5
  Kd: 0.8 nM
CB2 receptors [9]; CB2-mid subclone 2H1
  Kd: 0.4 nM
CB1 receptors; CB1-high subclone E5
  Kd: 0.7 nM
CB1 receptors; CB1-low subclone E3
  Kd: 0.8 nM
CB1 receptors; CB1-mid subclone E7
  Kd: 0.8 nM
wild-type DBT cells [10]
  Radioligand binding: no binding

## COc1cccc(-c2cc(=O)c3ccccc3o2)c1N [PD98059]
Wild type DBT cells; inhibitor 10 µM pretreatment, wild-type DBT cells
  Effect on 10 µM CP-55,940-induced killing: partially prevented
CB1-low DBT cells [6]; inhibitor 10 µM pretreatment, CB1-low DBT cells
  Effect on 1 µM CP-55,940-induced killing: partially prevented

## Cc1c(C(=O)NN2CCCCC2)nn(-c2ccc(Cl)cc2Cl)c1-c1ccc(Cl)cc1 [SR141716A, 5-(4-chlorophenyl)-1-(2,4-dichlorophenyl)-4-methyl-N-(1-piperidyl)-1H-pyrazole-3-carboxamide]
Wild type DBT cells; antagonist 5 µM pretreatment, wild type DBT cells
  Effect on 10 µM CP-55,940-induced cell death: did not affect
CB1-low DBT cells [6]; antagonist 5 µM pretreatment, CB1-low DBT cells
  Effect on 1 µM CP-55,940-induced killing: blocked
